Assay results as given in patent publication US20230096766A1, “AMINO ACID HAVING FUNCTIONAL GROUP CAPABLE OF INTERMOLECULAR HYDROGEN BONDING, PEPTIDE COMPOUND CONTAINING SAME AND METHOD FOR PRODUCTION THEREOF” (Chugai Seiyaku Kabushiki Kaisha, priority 2018, published 2023).
*1 amine or outer side, *2 acyl side, *3 side chain or, on linkers, in order; H or OH if unused. Where a SMILES comes first, the peptide text is derived from it. Bridges are numbered along the chain shown (N, C = ends). [ ]: non-standard residue; d: D form. The star is where a group is joined. ξ: configuration not given here. Phe(3-OMe,4-CONHMs) = COc1cc(C[C@H](N)C(=O)O)ccc1C(=O)NS(C)(=O)=O; NMeHph(3-OMe-4-CONHMe) = CNC(=O)c1ccc(CC[C@H](NC)C(=O)O)cc1OC; X15 = CCCCN(CC(=O)C(C)[C@@H](CC(C)C)C(=O)[*:2])[*:1]; X5 = O=C([C@H](CCC[C@@H]1CC(F)(F)CN1)N[*:1])[*:2]; CH2(1,2,4-oxadiazolon-3-yl) = O=c1[nH]c(C*)no1; NMePhe(3-Cl) = CN[C@@H](Cc1cccc(Cl)c1)C(=O)O; X12 = O=C([C@H](CCCC(O)C(F)(F)F)N[*:1])[*:2]; Pro(4,4-F2)ψ(CH2) = FC1(F)CN[C@H](C*)C1; X9 = O=C([C@@H](CN[*:1])COCCO)[*:2]; Propyl(2,2-Me2,3-OH) = CC(C)(CO)C*; NMeF = CN[C@@H](Cc1ccccc1)C(=O)O; NMeGABA = CN(CCCC(=O)[*:2])[*:1]; NMeI = CC[C@H](C)[C@H](NC)C(=O)O; NMeL = CN[C@@H](CC(C)C)C(=O)O; Butyl(3S-OH) = C[C@H](O)CC*; NMeV = CN[C@H](C(=O)O)C(C)C; NMeAbu = CC[C@H](NC)C(=O)O; Piperidide = C1CCN(*)CC1; Me2NCH2CH2 = CN(C)CC*; NBuGly = CCCCNCC(=O)O; NPrGly = CCCNCC(=O)O; ξNMeA = CNC(C)C(=O)O; ξS = NC(CO)C(=O)O; Sar = CNCC(=O)O; tBu = CC(C)(C)*

Assay: Membrane permeability test of cyclic peptides (Caco-2, modified/improved method of WO 2018/124162)
Conditions: human, Caco-2, Caco-2 (cm/sec), Table 36; Papp; sequences having Papp ≥ 1.0 × 10^−6 at ARC = 3

Structure (SMILES)	Papp
CC[C@H](C)[C@@H]1NC(=O)[C@H](Cc2ccccc2)N(C)C(=O)CN(C)C(=O)C[C@@H](C(=O)N2CCCCC2)NC(=O)[C@H](C(C)C)N(C)C(=O)[C@H](COC(C)(C)C)NC(=O)[C@H](CC(C)C)N(C)C(=O)[C@H](Cc2ccccc2)N(C)C(=O)CN(C)C(=O)[C@H]([C@@H](C)O)NC(=O)[C@H](Cc2ccccc2)N(C)C1=O [pd205] ([Sar][NMeF]I[NMeF]T[Sar][NMeF][NMeL]S(tBu)[NMeV]D-Piperidide; lactam N-11)	1.8 ×10⁻⁶ cm/s

Same assay, conditions: human, Caco-2, Caco-2 (cm/sec), membrane permeability of cyclic peptides, Caco-2

Structure (SMILES)	Papp
CC(C)C[C@@H]1NC(=O)[C@H](Cc2ccccc2)N(C)C(=O)[C@H](CC(C)C)N(C)C(=O)[C@H](COCC(C)(C)CO)NC(=O)[C@H](CC(C)C)N(C)C(=O)C[C@@H](C(=O)N2CCCCC2)NC(=O)[C@H](CC(C)C)N(C)C(=O)CN(C)C(=O)[C@H]([C@@H](C)O)NC(=O)[C@H](CC(C)C)N(C)C(=O)[C@H](Cc2ccccc2)N(C)C1=O [AP125] ([NMeL]S(Propyl(2,2-Me2,3-OH))[NMeL][NMeF]L[NMeF][NMeL]T[Sar][NMeL]D-Piperidide; lactam N-11)	0.74 ×10⁻⁶ cm/s
CCCN1CC(=O)N(C)[C@@H](CC(C)C)C(=O)N[C@H](C(=O)N2CCCCC2)CC(=O)N(C)[C@@H](CC(C)C)C(=O)N[C@@H](Cc2ccccc2)C(=O)N(C)[C@@H](CC(C)C)C(=O)N(C)[C@@H](CC(C)C)C(=O)NC[C@@H](COCCO)C(=O)N(C)[C@@H](Cc2ccccc2)C(=O)N(C)[C@@H](CC(C)C)C(=O)N[C@@H]([C@@H](C)O)C1=O [AP132] ([NMeL]F[NMeL][NMeL][X9][NMeF][NMeL]T[NPrGly][NMeL]D-Piperidide; lactam N-11)	1.3 ×10⁻⁶ cm/s
CC(C)C[C@@H]1NC(=O)[C@H](C(C)C)N(C)C(=O)C[C@@H](C(=O)N2CCCCC2)NC(=O)[C@H](CC(C)C)N(C)C(=O)CN(C)C(=O)[C@H]([C@@H](C)O)NC(=O)[C@H](C(C)C)N(C)C(=O)[C@H](Cc2ccccc2)N(C)C(=O)C(COCC[C@H](C)O)NC(=O)[C@H](Cc2ccccc2)N(C)C(=O)[C@H](CC(C)C)N(C)C1=O (stereo partly drawn) [AP104] ([NMeV]L[NMeL][NMeF][ξS](Butyl(3S-OH))[NMeF][NMeV]T[Sar][NMeL]D-Piperidide; lactam N-11)	2.9 ×10⁻⁶ cm/s
CCCCN1CC(=O)N(C)[C@@H](Cc2cccc(Cl)c2)C(=O)N(C)[C@@H](CC(C)C)C(=O)N[C@@H]([C@@H](C)CC)C(=O)N(C)[C@@H](CC(C)C)C(=O)N[C@H](C(=O)N2CCCCC2)CC(=O)N(C)CC(=O)N(C)[C@@H](CC(C)C)C(=O)NC(COCc2noc(=O)[nH]2)C(=O)N(C)[C@@H](CC(C)C)C(=O)N[C@@H]([C@@H](C)O)C1=O (stereo partly drawn) [AP49] ([Sar][NMeL][ξS](CH2(1,2,4-oxadiazolon-3-yl))[NMeL]T[NBuGly][NMePhe(3-Cl)][NMeL]I[NMeL]D-Piperidide; lactam N-11)	0.33 ×10⁻⁶ cm/s
CNC(=O)c1ccc(CC[C@H]2C(=O)N[C@@H](CC(C)C)C(=O)N(C)[C@@H](CC(C)C)C(=O)N[C@@H]([C@@H](C)O)C(=O)N(C)CC(=O)N(C)[C@@H](CC(C)C)C(=O)N[C@@H](CC(C)C)C(=O)N(C)[C@@H](Cc3ccccc3)C(=O)N(C)[C@@H](CC(C)C)C(=O)N[C@H](C(=O)N3CCCCC3)CC(=O)N[C@H](C(C)C)C(=O)N2C)cc1OC [AP224] ([dV][NMeHph(3-OMe-4-CONHMe)]L[NMeL]T[Sar][NMeL]L[NMeF][NMeL]D-Piperidide; lactam N-11)	1.1 ×10⁻⁶ cm/s
CCCCN1CC(=O)N(C)[C@@H](CC(C)C)C(=O)N[C@H](C(=O)N2CCCCC2)CC(=O)N(C)[C@@H](CC(C)C)C(=O)NC(COCc2noc(=O)[nH]2)C(=O)N(C)[C@@H](CC(C)C)C(=O)N(C)[C@@H](CC(C)C)C(=O)N[C@@H](C(C)C)C(=O)N(C)[C@@H](Cc2ccccc2)C(=O)N(C)[C@@H](CC(C)C)C(=O)N[C@@H]([C@@H](C)O)C1=O (stereo partly drawn) [AP48] ([NMeL][ξS](CH2(1,2,4-oxadiazolon-3-yl))[NMeL][NMeL]V[NMeF][NMeL]T[NBuGly][NMeL]D-Piperidide; lactam N-11)	0.4 ×10⁻⁶ cm/s
CCCCN1CC(=O)C(C)[C@@H](CC(C)C)C(=O)NC(COCc2noc(=O)[nH]2)C(=O)N(C)[C@@H](Cc2ccccc2)C(=O)N(C)[C@@H](CC(C)C)C(=O)N[C@H](C(=O)N2CCCCC2)CC(=O)N[C@H](CC(C)C)C(=O)N(C)[C@@H](CC(C)C)C(=O)N[C@@H]([C@@H](C)CC)C(=O)N(C)[C@@H](CC(C)C)C(=O)N[C@@H]([C@@H](C)O)C1=O (stereo partly drawn) [AP44] ([dL][NMeL]I[NMeL]T[X15][ξS](CH2(1,2,4-oxadiazolon-3-yl))[NMeF][NMeL]D-Piperidide; lactam N-10)	0.3 ×10⁻⁶ cm/s
CC[C@H](C)[C@H]1C(=O)N[C@@H]([C@@H](C)O)C(=O)N(C)CC(=O)N(C)[C@@H](CC)C(=O)N[C@H](C(=O)N2CCCCC2)CC(=O)N(C)[C@@H](CC(C)C)C(=O)N[C@@H](Cc2ccc(C(=O)NS(C)(=O)=O)c(OC)c2)C(=O)N(C)[C@@H](CC(C)C)C(=O)N(C)[C@@H](Cc2ccccc2)C(=O)N[C@@H](CC(C)C)C(=O)N(C)[C@@H](CC(C)C)C(=O)N1C [AP139] ([NMeL][Phe(3-OMe,4-CONHMs)][NMeL][NMeF]L[NMeL][NMeI]T[Sar][NMeAbu]D-Piperidide; lactam N-11)	< 0.25 ×10⁻⁶ cm/s

Same assay, conditions: human, Caco-2, Caco-2 (membrane permeability), Table 6, cyclic peptides containing Ser(1-CF3-EtOH) (C) or Hnl(7-F3-6-OH) (D)

Structure (SMILES)	Papp
CC[C@H](C)[C@@H]1NC(=O)[C@H](CC(C)C)N(C)C(=O)[C@H](COC(C)(C)C)NC(=O)[C@H](Cc2ccccc2)N(C)C(=O)[C@H](Cc2ccccc2)N(C)C(=O)[C@H](CCCC(O)C(F)(F)F)NC(=O)[C@H](CC)N(C)C(=O)CCCN(C)C(=O)C[C@@H](C(=O)N2CCCCC2)NC(=O)[C@H](CC(C)C)N(C)C(=O)[C@H](CC(C)C)N(C)C1=O (stereo partly drawn) [Compound D13] ([NMeGABA][NMeAbu][X12][NMeF][NMeF]S(tBu)[NMeL]I[NMeL][NMeL]D-Piperidide; lactam N-11)	0.14 ×10⁻⁶ cm/s
CC(C)C[C@H]1C(=O)N[C@@H](C(C)C)C(=O)N(C)[C@@H](Cc2ccccc2)C(=O)N(C)[C@@H](Cc2ccccc2)C(=O)N[C@@H](COC(C)(C)C)C(=O)N(C)[C@@H](CC(C)C)C(=O)N[C@@H](CCCC(O)C(F)(F)F)C(=O)N(C)[C@@H](CC(C)C)C(=O)N(C)[C@@H](CC(C)C)C(=O)N[C@H](C(=O)N2CCCCC2)CC(=O)N(C)CCCC(=O)N1C (stereo partly drawn) [Compound D12] ([NMeGABA][NMeL]V[NMeF][NMeF]S(tBu)[NMeL][X12][NMeL][NMeL]D-Piperidide; lactam N-11)	0.13 ×10⁻⁶ cm/s

Same assay, conditions: human, Caco-2, Caco-2 (membrane permeability), Table 10, cyclic peptides containing Ser(S-4-F2-Pyrro-Me) (G) or Nva(2-R-4-F2-Pyrro) (H)

Structure (SMILES)	Papp
CC(C)C[C@H]1C(=O)N[C@@H](C(C)C)C(=O)N(C)[C@@H](Cc2ccccc2)C(=O)N(C)[C@@H](CC(C)C)C(=O)N[C@@H](CCC[C@@H]2CC(F)(F)CN2)C(=O)N(C)[C@@H](CC(C)C)C(=O)N[C@@H]([C@@H](C)O)C(=O)N(C)[C@@H](CC(C)C)C(=O)N(C)[C@@H](CC(C)C)C(=O)N[C@H](C(=O)N2CCCCC2)CC(=O)N(C)CCCC(=O)N1C [Compound H03] ([NMeGABA][NMeL]V[NMeF][NMeL][X5][NMeL]T[NMeL][NMeL]D-Piperidide; lactam N-11)	< 0.18 ×10⁻⁶ cm/s
CCCCN1CC(=O)N(C)[C@@H](Cc2ccccc2)C(=O)N(C)[C@@H](CC(C)C)C(=O)N[C@@H](CC(C)C)C(=O)N(C)[C@@H](CC(C)C)C(=O)N[C@H](C(=O)N2CCCCC2)CC(=O)N(C)CC(=O)N(C)[C@@H](CC)C(=O)N[C@@H](C(C)C)C(=O)N(C)[C@@H](CC)C(=O)N[C@@H](COC[C@@H]2CC(F)(F)CN2)C1=O [Compound G11] ([Sar][NMeAbu]V[NMeAbu]S(Pro(4,4-F2)ψ(CH2))[NBuGly][NMeF][NMeL]L[NMeL]D-Piperidide; lactam N-11)	1.5 ×10⁻⁶ cm/s
CCCCN1CC(=O)N(C)[C@@H](Cc2ccccc2)C(=O)N(C)[C@@H](CC(C)C)C(=O)N[C@@H](C(C)C)C(=O)N(C)[C@@H](CC(C)C)C(=O)N[C@H](C(=O)N2CCCCC2)CC(=O)N(C)CC(=O)N(C)[C@@H](CC(C)C)C(=O)N[C@@H](COC[C@@H]2CC(F)(F)CN2)C(=O)N(C)[C@@H](CC(C)C)C(=O)N[C@@H]([C@@H](C)O)C1=O [Compound G06] ([Sar][NMeL]S(Pro(4,4-F2)ψ(CH2))[NMeL]T[NBuGly][NMeF][NMeL]V[NMeL]D-Piperidide; lactam N-11)	1.8 ×10⁻⁶ cm/s
CCCCN1CC(=O)N(C)[C@@H](Cc2ccccc2)C(=O)N(C)[C@@H](CC(C)C)C(=O)N[C@@H](C(C)C)C(=O)N(C)[C@@H](CC(C)C)C(=O)N[C@H](C(=O)N2CCCCC2)CC(=O)N(C)CC(=O)N(C)[C@@H](C(C)C)C(=O)N[C@@H](CCC[C@@H]2CC(F)(F)CN2)C(=O)N(C)[C@@H](CC(C)C)C(=O)N[C@@H]([C@@H](C)O)C1=O [Compound H06] ([Sar][NMeV][X5][NMeL]T[NBuGly][NMeF][NMeL]V[NMeL]D-Piperidide; lactam N-11)	0.27 ×10⁻⁶ cm/s
CCCCN1CC(=O)N(C)[C@@H](CC(C)C)C(=O)N[C@H](C(=O)N2CCCCC2)CC(=O)N(C)C(C)C(=O)N[C@@H](COC[C@@H]2CC(F)(F)CN2)C(=O)N(C)[C@@H](CC(C)C)C(=O)N(C)[C@@H](CC)C(=O)N[C@@H](C(C)C)C(=O)N(C)[C@@H](Cc2ccccc2)C(=O)N(C)[C@@H](CC(C)C)C(=O)N[C@@H]([C@@H](C)O)C1=O (stereo partly drawn) [Compound G05] ([ξNMeA]S(Pro(4,4-F2)ψ(CH2))[NMeL][NMeAbu]V[NMeF][NMeL]T[NBuGly][NMeL]D-Piperidide; lactam N-11)	3.2 ×10⁻⁶ cm/s

Same assay, conditions: human, Caco-2, Caco-2, Papp, membrane permeability; cyclic peptides comprising Ser(Et-2-NMe2) or Gln(Ms) (Table 27)

Structure (SMILES)	Papp
CC(C)C[C@@H]1NC(=O)[C@H](Cc2ccccc2)N(C)C(=O)[C@H](Cc2ccccc2)N(C)C(=O)[C@H](COCCN(C)C)NC(=O)[C@H](CC(C)C)N(C)C(=O)CCCN(C)C(=O)C[C@@H](C(=O)N2CCCCC2)NC(=O)[C@H](CC(C)C)N(C)C(=O)[C@H](CC(C)C)N(C)C(=O)[C@H]([C@@H](C)O)NC(=O)[C@H](CC(C)C)N(C)C1=O [pd55] ([NMeGABA][NMeL]S(Me2NCH2CH2)[NMeF][NMeF]L[NMeL]T[NMeL][NMeL]D-Piperidide; lactam N-11)	0.1 ×10⁻⁶ cm/s
